Data taken from US12686692B2, “KRas G12D inhibitors” (Mirati Therapeutics, Inc., priority 2020, dated 2026).

Columns and labels:
KRas G12D [1] = target: T1, KRas G12D (Homo sapiens, UniProt P01116, G12D); experiment: KRas G12D Surface Plasmon Resonance (SPR) Binding Assay; conditions: Biacore T200, biotinylated Avidin-tagged KRAS protein on SA chip, 20 C, 1:1 binding model
Experimental: This Example illustrates that exemplary compounds of the present invention bind to KRas G12D as measured by surface plasmon resonance (SPR). Briefly, 1 L of 1.05×HBS-Mg buffer (262.5 mM BioUltra Hepes, pH 7.5, 157.5 mM NaCl, 105 mM MgCl2, 0.525 mM TCEP, […] Brij-35) was prepared and filter sterilized using a 0.22 μm bottle top filter. Approximately 50 mL of 1.05×HBS-Mg buffer was removed and saved for future dilutions. A 50 mL aliquot of DMSO (Sigma Aldrich DMSO Lot. #SHBK2079) was added and continued to stir for 10 minutes, creating the final 1.0×HBS-Mg buffer (250 mM BioUltra Hepes pH 7.5, 150 mM NaCl, 100 mM MgCl2, 0.5 mM TCEP, 0.03% Brij-35). Biacore T200 instrument was primed using 1.0×HBS-Mg buffer before docking a GE Streptavidin (SA) chip and then primed two additional times prior to beginning the immobilization step. All immobilized protein mixtures were created using 3-5 mg/mL Biotinylated Avidin-tagged KRAS protein using the following immobilization settings: SA chip type, 1 flow cells per cycle, 720 second contact time, and 5 μL/min flow rate. Normalization of the detector was also performed during the immobilization step using the GE BiaNormalize solution. All compounds were diluted to 10 mM in 100% DMSO prior to being diluted 20× in 1.05× buffer. Another 10× dilution was created using 1.0× buffer prior to performing a series of 3× dilutions to create a compound concentration curve using the following assay settings: 20 C analysis temperature, General Settings=10 Hz data collection rate and multi-detection; Assay Steps=all set to LMW kinetics; Cycle Types=LMW kinetics (60s contact time, 120s dissociation time, 100 μL/min flow rate, extra wash after injection with 50% DMSO, flow path 1,2,3,4); Flow path detection=2-1, 4-3). Data evaluation was performed using the Biacore T200 Evaluation software and data fit to 1:1 binding model.
Target sequence in this assay (P01116 1-188 isoform P01116-2 G12D): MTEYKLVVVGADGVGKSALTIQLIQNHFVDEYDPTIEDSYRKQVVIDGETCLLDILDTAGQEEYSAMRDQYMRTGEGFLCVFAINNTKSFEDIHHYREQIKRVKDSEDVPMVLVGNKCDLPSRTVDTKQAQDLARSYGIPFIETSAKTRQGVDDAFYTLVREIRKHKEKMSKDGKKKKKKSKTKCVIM

KRas G12D [2] = target: T1, KRas G12D; experiment: KRas G12D Binding Assay (TR-FRET displacement of labeled tracer); set-up: corresponding to amino acids 1:169, produced at Array BioPharma; biotin (protein is biotinylated); conditions: TR-FRET displacement of Cy5 labelled tracer, biotinylated GDP-loaded KRAS G12D (aa 1:169), 60 minute incubation at 22° C.
Summary of the method: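 Biotinylated GDP-loaded human KRAS G12D (aa 1–169) incubated with Cy5 tracer, Eu-streptavidin and compound (2% DMSO final) in 50 mM HEPES pH 7.5, 5 mM MgCl2, 0.005% Tween-20, 1 mM DTT, 60 min at 22 °C. TR-FRET ratio converted to percent of control; IC50 at 50 POC from 4-parameter logistic fit.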
Target sequence in this assay (P01116 1-169 isoform P01116-2 G12D): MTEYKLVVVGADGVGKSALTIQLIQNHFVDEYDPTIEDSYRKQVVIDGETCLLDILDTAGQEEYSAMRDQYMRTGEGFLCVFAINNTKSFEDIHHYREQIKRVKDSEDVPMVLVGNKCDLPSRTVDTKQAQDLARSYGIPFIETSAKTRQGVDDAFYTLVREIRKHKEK

In the case of CN1CCC[C@H]1COc1nc2c(c(N3C[C@H]4CC[C@@H](C3)N4)n1)CCN(c1cncc3ccccc13)C2 [Example 57, 4-((1R,5S)-3,8-diazabicyclo[3.2.1]octan-3-yl)-7-(isoquinolin-4-yl)-2-(((S)-1-methylpyrrolidin-2-yl)methoxy)-5,6,7,8-tetrahydropyrido[3,4-d]pyrimidine], the Kd (KRas G12D [1]) is reported as 98.5 µM and the IC50 (KRas G12D [2]) is reported as over 10 µM.

CN1CCC[C@H]1COc1nc2c(c(N3C[C@H]4CC[C@@H](C3)N4)n1)CCN(c1cccc3ccccc13)C2 [Example 70, 4-((1R,5S)-3,8-diazabicyclo[3.2.1]octan-3-yl)-2-(((S)-1-methylpyrrolidin-2-yl)methoxy)-7-(naphthalen-1-yl)-5,6,7,8-tetrahydropyrido[3,4-d]pyrimidine] showed a Kd (KRas G12D [1]) of 2.1 µM and an IC50 (KRas G12D [2]) of 1.12 µM.

For CN1CCC[C@H]1COc1nc2c(c(N3C[C@H]4CC[C@@H](C3)N4)n1)CCN(c1nc(N)nc3ccccc13)C2 [Example 59, 4-(4-((1R,5S)-3,8-diazabicyclo[3.2.1]octan-3-yl)-2-(((S)-1-methylpyrrolidin-2-yl)methoxy)-5,8-dihydropyrido[3,4-d]pyrimidin-7(6H)-yl)quinazolin-2-amine], the Kd (KRas G12D [1]) was 598 µM and the IC50 (KRas G12D [2]) was 7.5 µM.

Cc1ccc2cccc(N3CCc4c(nc(OC[C@@H]5CCCN5C)nc4N4C[C@H]5CC[C@@H](C4)N5)C3)c2c1 [Example 110, 4-((1R,5S)-3,8-diazabicyclo[3.2.1]octan-3-yl)-7-(7-methylnaphthalen-1-yl)-2-(((S)-1-methylpyrrolidin-2-yl)methoxy)-5,6,7,8-tetrahydropyrido[3,4-d]pyrimidine] showed a Kd (KRas G12D [1]) of 3.23 µM and an IC50 (KRas G12D [2]) of 3.17 µM.

For COC1CC(N2CCc3c(nc(OC[C@@H]4CCCN4C)nc3N3C[C@H]4CC[C@@H](C3)N4)C2)c2ccccc21 (stereo partly drawn) [Example 36, 4-((1R,5S)-3,8-diazabicyclo[3.2.1]octan-3-yl)-7-(3-methoxy-2,3-dihydro-1H-inden-1-yl)-2-(((S)-1-methylpyrrolidin-2-yl)methoxy)-5,6,7,8-tetrahydropyrido[3,4-d]pyrimidine], the Kd (KRas G12D [1]) was 24.3 µM and the IC50 (KRas G12D [2]) was over 10 µM.

CN1CCC[C@H]1COc1nc2c(c(N3C[C@H]4CC[C@@H](C3)N4)n1)CCN(c1cccc3cccc(CCCC#N)c13)C2 [Example 83, 4-(8-(4-((1R,5S)-3,8-diazabicyclo[3.2.1]octan-3-yl)-2-(((S)-1-methylpyrrolidin-2-yl)methoxy)-5,8-dihydropyrido[3,4-d]pyrimidin-7(6H)-yl)naphthalen-1-yl)butanenitrile] showed a Kd (KRas G12D [1]) of 19.9 µM and an IC50 (KRas G12D [2]) of 6.57 µM.

Work on CN1CCC[C@H]1COc1nc2c(c(N3C[C@H]4C/C(=C\C#N)[C@@H](C3)N4)n1)CCN(c1cccc3cccc(Cl)c13)C2 (single isomer, unassigned) [Example 89] yielded a Kd (KRas G12D [1]) of 27.1 µM and an IC50 (KRas G12D [2]) of over 10 µM.

CN1CCC[C@H]1COc1nc2c(c(N3C[C@H]4CC[C@@H](C3)N4)n1)CCN(c1ccc(Br)c3cccc(Cl)c13)C2 [Example 74, 4-((1R,5S)-3,8-diazabicyclo[3.2.1]octan-3-yl)-7-(4-bromo-8-chloronaphthalen-1-yl)-2-(((S)-1-methylpyrrolidin-2-yl)methoxy)-5,6,7,8-tetrahydropyrido[3,4-d]pyrimidine] was tested, and the Kd (KRas G12D [1]) was 41.6 µM and the IC50 (KRas G12D [2]) was over 10 µM.

Work on CN1CCC[C@H]1COc1nc2c(c(N3C[C@H]4CC[C@@H](C3)N4)n1)CCN(C1CC(O)c3ccccc31)C2 (stereo partly drawn) [Example 35, 3-(4-((1R,5S)-3,8-diazabicyclo[3.2.1]octan-3-yl)-2-(((S)-1-methylpyrrolidin-2-yl)methoxy)-5,8-dihydropyrido[3,4-d]pyrimidin-7(6H)-yl)-2,3-dihydro-1H-inden-1-ol] yielded a Kd (KRas G12D [1]) of 570 µM and an IC50 (KRas G12D [2]) of over 10 µM.

Molecule CN1CCC[C@H]1COc1nc2c(c(N3C[C@H]4CC[C@@H](C3)N4)n1)CCN(c1c(O)ccc3ccccc13)C2 [Example 78, 1-(4-((1R,5S)-3,8-diazabicyclo[3.2.1]octan-3-yl)-2-(((S)-1-methylpyrrolidin-2-yl)methoxy)-5,8-dihydropyrido[3,4-d]pyrimidin-7(6H)-yl)naphthalen-2-ol] has a Kd (KRas G12D [1]) of 51.4 µM and an IC50 (KRas G12D [2]) of over 10 µM.

Cc1c(O)cc(N2CCc3c(nc(OC[C@@H]4CCCN4C)nc3N3C[C@H]4CC[C@@H](C3)N4)C2)c2ccccc12 [Example 69, 4-(4-((1R,5S)-3,8-diazabicyclo[3.2.1]octan-3-yl)-2-(((S)-1-methylpyrrolidin-2-yl)methoxy)-5,8-dihydropyrido[3,4-d]pyrimidin-7(6H)-yl)-1-methylnaphthalen-2-ol] gave a Kd (KRas G12D [1]) of 38.4 µM and an IC50 (KRas G12D [2]) of over 10 µM.

In the case of CN1CCC[C@H]1COc1nc2c(c(N3C[C@H]4CC[C@@H](C3)N4)n1)CCN(c1cccc3cccc(F)c13)C2 [Example 73, 4-((1R,5S)-3,8-diazabicyclo[3.2.1]octan-3-yl)-7-(8-fluoronaphthalen-1-yl)-2-(((S)-1-methylpyrrolidin-2-yl)methoxy)-5,6,7,8-tetrahydropyrido[3,4-d]pyrimidine], the Kd (KRas G12D [1]) is reported as 3.16 µM and the IC50 (KRas G12D [2]) is reported as 1.1 µM.

C[C@H]1CC2CN(c3nc(OC[C@@H]4CCCN4C)nc4c3CCN(c3cccc5cccc(Cl)c35)C4)C[C@H]1N2 (single isomer, unassigned) [Example 88] gave a Kd (KRas G12D [1]) of 2.1 µM and an IC50 (KRas G12D [2]) of 1.09 µM.

In the case of CN1CCC[C@H]1COc1nc2c(c(N3C[C@H]4CC[C@@H](C3)N4)n1)CCN(c1c(O)cccc1F)C2 [Example 77, 2-(4-((1R,5S)-3,8-diazabicyclo[3.2.1]octan-3-yl)-2-(((S)-1-methylpyrrolidin-2-yl)methoxy)-5,8-dihydropyrido[3,4-d]pyrimidin-7(6H)-yl)-3-fluorophenol], the Kd (KRas G12D [1]) is reported as 264 µM and the IC50 (KRas G12D [2]) is reported as over 10 µM.

In the case of CN1CCC[C@H]1COc1nc2c(c(N3C[C@H]4CC[C@@H](C3)N4)n1)CCN(c1cccc3c1CCCC3)C2 [Example 71, 4-((1R,5S)-3,8-diazabicyclo[3.2.1]octan-3-yl)-2-(((S)-1-methylpyrrolidin-2-yl)methoxy)-7-(5,6,7,8-tetrahydronaphthalen-1-yl)-5,6,7,8-tetrahydropyrido[3,4-d]pyrimidine], the Kd (KRas G12D [1]) is reported as 4.22 µM and the IC50 (KRas G12D [2]) is reported as 1.78 µM.

CN1CCC[C@H]1COc1nc2c(c(N3C[C@H]4C/C(=C/C#N)[C@@H](C3)N4)n1)CCN(c1cccc3cccc(Cl)c13)C2 (single isomer, unassigned) [Example 90] was tested, and the Kd (KRas G12D [1]) was 0.938 µM and the IC50 (KRas G12D [2]) was 1.46 µM.

Work on CN1CCC[C@H]1COc1nc2c(c(N3C[C@H]4CC[C@@H](C3)N4)n1)CCN(c1cccc3cccc(CCCO)c13)C2 [Example 79, 3-(8-(4-((1R,5S)-3,8-diazabicyclo[3.2.1]octan-3-yl)-2-(((S)-1-methylpyrrolidin-2-yl)methoxy)-5,8-dihydropyrido[3,4-d]pyrimidin-7(6H)-yl)naphthalen-1-yl)propan-1-ol] yielded a Kd (KRas G12D [1]) of 1.86 µM and an IC50 (KRas G12D [2]) of 0.486 µM.

CN1CCC[C@H]1COc1nc2c(c(N3C[C@H]4CC[C@@H](C3)N4)n1)CC(=O)N(Cc1ccccc1)C2 [Example 53, 7-benzyl-4-((1R,5S)-3,8-diazabicyclo[3.2.1]octan-3-yl)-2-(((S)-1-methylpyrrolidin-2-yl)methoxy)-7,8-dihydropyrido[3,4-d]pyrimidin-6(5H)-one] was tested, and the Kd (KRas G12D [1]) was over 1000 µM and the IC50 (KRas G12D [2]) was 5.26 µM.

With O[C@@H]1C[C@@H]2CN(c3nc(OCCC(F)(F)F)nc4c3CCN(c3cccc5cccc(Cl)c35)C4)C[C@H]1N2 [Example 86, (1R,5R,6R)-3-(7-(8-chloronaphthalen-1-yl)-2-(3,3,3-trifluoropropoxy)-5,6,7,8-tetrahydropyrido[3,4-d]pyrimidin-4-yl)-3,8-diazabicyclo[3.2.1]octan-6-ol] the Kd (KRas G12D [1]) was 33.2 µM and the IC50 (KRas G12D [2]) was 2.9 µM.
